Experimental data: publication PMC9695823, “Regioselective Synthesis of 6-O-Acetyl Dieckol and Its Selective Cytotoxicity against Non-Small-Cell Lung Cancer Cells” (Marine Drugs, 2022)

Tests used:
[1] = system: A549 cells; assay: MTT cytotoxicity assay against A549 non-small-cell lung cancer cells; format: cell-based; conditions: for IC50: Homo sapiens, A549
Description: (§1) The cytotoxicity of DK and its various acyl and alkyl derivatives was assessed using the MTT assay against a non-small-lung cancer cell line (A549) and a normal cell line (NIH/3T3) at […] different concentrations (0, 0.005, 0.05, 0.5, 5, 50 and 500 μM). Among the newly synthesized acyl derivatives, the 6-O-acetyl (2) and 6-O-benzoyl (3) derivatives were included in this study, while the 6-O-propionyl (4) and 6-O-toluoyl (5) derivatives, which had been considered to be very similar to 6-O-acetyl (2) and 6-O-benzoyl (3) derivatives, respectively, were excluded from this study. […] The methyl and benzyl derivatives (6 and 7) were selected in parallel with acetyl and benzoyl (2 and 3) derivatives, respectively, to identify any impact of substitution chemistry (via sp^2 vs. sp^3 carbon in acylations and alkylations, respectively) and steric effect in cytotoxicity. Methoxymethyl (8), 3-(ethoxycarbonyl)propyl (9) and hydroxypropyl (10) derivatives were selected to determine the size effect of moderately polar substituents with a common heteroatom such as oxygen.
(§2) The non-small-cell lung cancer cell line A549 and the normal cell line NIH/3T3 were purchased from Korea Cell Line Research Foundation (Seoul, Korea). The cell lines were cultured in Dulbecco’s modified Eagle’s medium (DMEM) supplemented with 10% FBS and 1% penicillin–streptomycin at 37 °C with 5% CO2.
The cytotoxicity of DK and its derivatives was assessed by MTT assay, based on the reduction of MTT into insoluble formazan crystals by metabolically active cells. Briefly, the cells ([…]) were seeded in each well containing culture medium in a 96-well plate. After the incubation for 24 h at 37 °C, various concentrations of DK and its derivatives were added. After 24 h, 10 μL of the MTT reagent ([…]) was added, and the plates were incubated for an additional 2 h. The medium was discarded, and the formazan blue, which was formed in the cells, was dissolved in […] of dimethyl sulfoxide (DMSO). The optical density was measured at 540 nm using a microplate spectrophotometer (Epoch; Agilent Technologies, Inc. Santa Clara, CA, USA). The IC50 corresponded to a 50% decrease in the number of cells compared to the untreated control. The results are represented as the mean of three independent experiments. The IC50 values of DK and its derivatives were determined for the different cell lines by nonlinear regression using GraphPad Prism v6.0 software (La Jolla, CA, USA).

[2] = system: NIH/3T3 cells; assay: MTT cytotoxicity assay against normal cell line NIH/3T3; format: cell-based; conditions: 24 h treatment, 0-500 μM, mean ± SD, listed as DK
Description: as §1, §2
(§3) The cytotoxicity of DK and its derivatives was assessed by MTT assay, based on the reduction of MTT into insoluble formazan crystals by metabolically active cells. Briefly, the cells ([…]) were seeded in each well containing culture medium in a 96-well plate. After the incubation for 24 h at 37 °C, various concentrations of DK and its derivatives were added. […] The optical density was measured at 540 nm using a microplate spectrophotometer (Epoch; Agilent Technologies, Inc. Santa Clara, CA, USA). […] The IC50 values of DK and its derivatives were determined for the different cell lines by nonlinear regression using GraphPad Prism v6.0 software (La Jolla, CA, USA).

[3] = design: method as in PMID 35542614; conditions: estimated; cited from earlier work
[4] = MTT cytotoxicity assay against normal cell line NIH/3T3; format: cell-based; conditions: mouse, NIH/3T3 normal cells, 24 h treatment, 0-500 μM, mean ± SD
Description: as §1, §2, §3

[5] = system: NSCLC (A549) cells vs. normal (NIH/3T3) cells; assay: Selectivity index, cytotoxicity A549 vs. NIH/3T3; format: cell-based; conditions: SI = IC50 (NIH/3T3 cells)/IC50 (A549 cells)
From the text: The ideal anticancer drug should have a relatively high toxic concentration on normal cells with a very low active concentration on cancer cells. In this study, the cancer-selective cytotoxicity of DK derivatives has been studied for the first time. To address this selectivity issue, the selectivity index (SI), which is defined as the ratio of the toxic concentration of a sample against its effective bioactive concentration according to Equation (1) (see Section 4.7), was used. […] An SI value ≥ 10 was assumed to belong to a selected potential sample that can be further investigated. Therefore, the acetyl and hydroxypropyl DKs would be highly considered for further investigations as potential anti-NSCLC chemotherapeutic agents.
The selectivity index (SI) was determined to assess the selective cytotoxicity of the DK derivatives against NSCLC (A549) cells vs. normal (NIH/3T3) cells based on Equation (1):SI = IC50 (NIH/3T3 cells)/IC50 (A549 cells)(1)

[6] = MTT, 24 h treatment, 0-500 μM, mean ± SD

Row | Structure (SMILES) | Cytotoxicity (IC50) A549 ([1]; MTT, 24 h treatment, 0-500 μM, mean ± SD, listed as DK) | Cytotoxicity (IC50) NIH/3T3 [2] | lowest pKa [3] | times higher activity than 6-O-benzyl DK ([1]; A549 cells) [times] | IC50 [1, 6] [µM] | IC50 at 24 h [4] [µM] | SI Value (selectivity index) [5] | fold increase in IC50 compared with acetyl DK ([1]; A549 cells) [fold]
1 | Oc1cc(O)cc(Oc2c(O)cc(O)c3c2Oc2c(O)cc(Oc4c(O)cc(Oc5c(O)cc(O)c6c5Oc5c(O)cc(O)cc5O6)cc4O)cc2O3)c1 [compound 1, Dieckol] | did not show detectable cytotoxicity | did not show detectable cytotoxicity | 5.0 | – | – | – | – | –
2 | CC(=O)Oc1cc(O)cc2c1Oc1c(Oc3cc(O)c(Oc4cc(O)c5c(c4)Oc4c(O)cc(O)c(Oc6cc(O)cc(O)c6)c4O5)c(O)c3)c(O)cc(O)c1O2 [compound 2, 6-O-acetyl dieckol] | – | – | – | 120 | 7.02 ± 1.53 | 481 | 68.58 | –
3 | O=C(Oc1cc(O)cc2c1Oc1c(Oc3cc(O)c(Oc4cc(O)c5c(c4)Oc4c(O)cc(O)c(Oc6cc(O)cc(O)c6)c4O5)c(O)c3)c(O)cc(O)c1O2)c1ccccc1 [compound 3, 6-O-benzoyl dieckol] | – | – | – | – | 641 ± 17.9 | – | – | 91
4 | OCCCOc1cc(O)cc2c1Oc1c(Oc3cc(O)c(Oc4cc(O)c5c(c4)Oc4c(O)cc(O)c(Oc6cc(O)cc(O)c6)c4O5)c(O)c3)c(O)cc(O)c1O2 [compound 10] | – | – | – | – | 13.1 ± 5.06 | 563 ± 51.8 | 43.07 | –
